Data reported in PubChem BioAssay (NCI).
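Abbreviation: GI50, concentration required for 50% inhibition of growth. The concentration for full growth arrest is given as TGI.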

Assays:
Test in all cases: NCI anticancer screen, dose series, 384-well format
HL-60(TB) leukemia = system: HL-60(TB) leukemia
NCI-H226 lung = system: NCI-H226 lung
MDA-MB-231 breast = system: MDA-MB-231 breast
T-47D breast = system: T-47D breast
OVCAR-3 ovarian = system: OVCAR-3 ovarian
SNB-75 CNS = system: SNB-75 CNS
SF-295 CNS = system: SF-295 CNS
NCI-H23 lung = system: NCI-H23 lung
CAKI-1 renal = system: CAKI-1 renal
SN12C renal = system: SN12C renal
M14 melanoma = system: M14 melanoma
HS 578T breast = system: HS 578T breast
MALME-3M melanoma = system: MALME-3M melanoma
OVCAR-8 ovarian = system: OVCAR-8 ovarian
SF-268 CNS = system: SF-268 CNS
NCI-H322M lung = system: NCI-H322M lung
RPMI-8226 leukemia = system: RPMI-8226 leukemia
SK-OV-3 ovarian = system: SK-OV-3 ovarian
BT-549 breast = system: BT-549 breast
NCI-H522 lung = system: NCI-H522 lung
U251 glioblastoma = system: U251 glioblastoma
SK-MEL-28 melanoma = system: SK-MEL-28 melanoma
NCI/ADR-RES ovarian = system: NCI/ADR-RES ovarian
EKVX NSCLC = system: EKVX NSCLC
LOX IMVI melanoma = system: LOX IMVI melanoma
NCI-H460 NSCLC = system: NCI-H460 NSCLC
HCT-15 colon = system: HCT-15 colon
HCT-116 colon = system: HCT-116 colon
SNB-19 CNS = system: SNB-19 CNS
HT29 colon = system: HT29 colon
RXF 393 renal = system: RXF 393 renal
K-562 leukemia = system: K-562 leukemia
OVCAR-5 ovarian = system: OVCAR-5 ovarian
IGROV1 ovarian = system: IGROV1 ovarian
786-0 renal = system: 786-0 renal
ACHN renal = system: ACHN renal
SK-MEL-2 melanoma = system: SK-MEL-2 melanoma
SF-539 CNS = system: SF-539 CNS
A498 renal = system: A498 renal
UACC-257 melanoma = system: UACC-257 melanoma
SW-620 colon = system: SW-620 colon
CCRF-CEM leukemia = system: CCRF-CEM leukemia
COLO 205 colon = system: COLO 205 colon
MDA-MB-435 melanoma = system: MDA-MB-435 melanoma
HOP-62 NSCLC = system: HOP-62 NSCLC
OVCAR-4 ovarian = system: OVCAR-4 ovarian
MDA-MB-468 breast = system: MDA-MB-468 breast

Compound: CNC(=O)c1ccccc1Nc1nc(Nc2ccc3c(c2OC)CCC[C@H](N2CCN(CCO)CC2)C3)ncc1Cl
- GI50 (HL-60(TB) leukemia): 215 nM
- TGI (HL-60(TB) leukemia): 551 nM
- GI50 (NCI-H226 lung): 686 nM
- TGI (NCI-H226 lung): 2700 nM
- GI50 (MDA-MB-231 breast): 974 nM
- TGI (MDA-MB-231 breast): 2280 nM
- GI50 (T-47D breast): 1280 nM
- TGI (T-47D breast): 2710 nM
- GI50 (OVCAR-3 ovarian): 1180 nM
- TGI (OVCAR-3 ovarian): 2770 nM
- GI50 (SNB-75 CNS): 1430 nM
- TGI (SNB-75 CNS): 3.22 µM
- GI50 (SF-295 CNS): 1710 nM
- TGI (SF-295 CNS): 3.11 µM
- GI50 (NCI-H23 lung): 673 nM
- TGI (NCI-H23 lung): 2320 nM
- GI50 (CAKI-1 renal): 511 nM
- TGI (CAKI-1 renal): 1920 nM
- GI50 (SN12C renal): 1400 nM
- TGI (SN12C renal): 4.34 µM
- GI50 (M14 melanoma): 632 nM
- TGI (M14 melanoma): 1850 nM
- GI50 (HS 578T breast): 726 nM
- TGI (HS 578T breast): 2030 nM
- GI50 (MALME-3M melanoma): 414 nM
- TGI (MALME-3M melanoma): 1450 nM
- GI50 (OVCAR-8 ovarian): 1500 nM
- TGI (OVCAR-8 ovarian): 3.18 µM
- GI50 (SF-268 CNS): 1550 nM
- TGI (SF-268 CNS): 3.02 µM
- GI50 (NCI-H322M lung): 806 nM
- TGI (NCI-H322M lung): 2330 nM
- GI50 (RPMI-8226 leukemia): 1150 nM
- TGI (RPMI-8226 leukemia): 2420 nM
- GI50 (SK-OV-3 ovarian): 740 nM
- TGI (SK-OV-3 ovarian): 2300 nM
- GI50 (BT-549 breast): 1970 nM
- TGI (BT-549 breast): 5.2 µM
- GI50 (NCI-H522 lung): 862 nM
- TGI (NCI-H522 lung): 2200 nM
- GI50 (U251 glioblastoma): 1430 nM
- TGI (U251 glioblastoma): 2830 nM
- GI50 (SK-MEL-28 melanoma): 1390 nM
- TGI (SK-MEL-28 melanoma): 2700 nM
- GI50 (NCI/ADR-RES ovarian): 2120 nM
- TGI (NCI/ADR-RES ovarian): 4.37 µM
- GI50 (EKVX NSCLC): 236 nM
- TGI (EKVX NSCLC): 1320 nM
- GI50 (LOX IMVI melanoma): 655 nM
- TGI (LOX IMVI melanoma): 1970 nM
- GI50 (NCI-H460 NSCLC): 1140 nM
- TGI (NCI-H460 NSCLC): 2480 nM
- GI50 (HCT-15 colon): 533 nM
- TGI (HCT-15 colon): 1730 nM
- GI50 (HCT-116 colon): 934 nM
- TGI (HCT-116 colon): 2320 nM
- GI50 (SNB-19 CNS): 2200 nM
- TGI (SNB-19 CNS): 5.9 µM
- GI50 (HT29 colon): 303 nM
- TGI (HT29 colon): 1350 nM
- GI50 (RXF 393 renal): 565 nM
- TGI (RXF 393 renal): 1710 nM
- GI50 (K-562 leukemia): 1430 nM
- TGI (K-562 leukemia): 2820 nM
- GI50 (OVCAR-5 ovarian): 925 nM
- TGI (OVCAR-5 ovarian): 3.48 µM
- GI50 (IGROV1 ovarian): 800 nM
- TGI (IGROV1 ovarian): 2760 nM
- GI50 ([…]-0 renal): 1160 nM
- TGI (786-0 renal): 2410 nM
- GI50 (ACHN renal): 584 nM
- TGI (ACHN renal): 2120 nM
- GI50 (SK-MEL-2 melanoma): 304 nM
- TGI (SK-MEL-2 melanoma): 1050 nM
- GI50 (SF-539 CNS): 1500 nM
- TGI (SF-539 CNS): 2930 nM
- GI50 (A498 renal): 488 nM
- TGI (A498 renal): 1700 nM
- GI50 (UACC-257 melanoma): 327 nM
- TGI (UACC-257 melanoma): 993 nM
- GI50 (SW-620 colon): 727 nM
- TGI (SW-620 colon): 2100 nM
- GI50 (CCRF-CEM leukemia): 1860 nM
- TGI (CCRF-CEM leukemia): 3.32 µM
- GI50 (COLO 205 colon): 283 nM
- TGI (COLO 205 colon): 960 nM
- GI50 (MDA-MB-435 melanoma): 833 nM
- TGI (MDA-MB-435 melanoma): 3.18 µM
- GI50 (HOP-62 NSCLC): 1430 nM
- TGI (HOP-62 NSCLC): 3.17 µM
- GI50 (OVCAR-4 ovarian): 1080 nM
- TGI (OVCAR-4 ovarian): 2790 nM
- GI50 (MDA-MB-468 breast): 384 nM
- TGI (MDA-MB-468 breast): 1660 nM
